From patent US20230146455A1, “TREATMENT OF INFLAMMATORY DISEASES WITH PEPTIDES AND PHARMACEUTICAL COMPOSITIONS” (Yuyu Pharma, Inc., priority 2020, published 2023)
“And” between values parts separate entries of the source, which are not always exact repeats. Equal entries are not always repeated. Where two headings read alike, the source gives them in different places. One block for each compound: values may come before it. Where a SMILES comes first, the peptide text is derived from it. [ ]: non-standard residue; d: D form. Hyp = O=C(O)[C@@H]1C[C@@H](O)CN1

Assays:
Caco-2 cells monolayer = assay: Apparent permeability, 21 day cultured Caco-2 cell monolayer, bi-directional (Example 7); type: in vitro ADME
Description: (§1) 10 mM stock solution of test compound was prepared in DMSO. 10 mM stock was diluted with 100% DMSO to prepare 0.2 mM, 0.2 mM stock was diluted with HBSS buffer to a final concentration of 2 μM.
(§2) Add 250 μL of DMEM to the basal compartment of 96 well multi-screen Caco-2 plates and seed 12000 cells/well (0.16×10^6 cells/ml) in all the apical wells required and 2 wells with only media as blank without cells. Place the Caco-2 plate in CO2 incubator at 37° C. for proliferation of cells.
(§3) The utilized media was replenished every alternate day by fresh medium. On 21st day, utilized medium was removed and washed twice with HBSS Buffer and incubated with HBSS buffer 30 min in incubator and initiated the assay.
(§4) 75 μL of test compound was added to apical wells and 250 μL of HBSS buffer with 1% DMSO was added to basal wells. Samples were collected at 120 min and processed as stated below.
(§5) 250 μL of test compound was added to basal wells and 75 μL of HBSS buffer with 1% DMSO was added to apical wells. Samples were collected at 120 min and processed as stated below.
(§6) Single point calibration curve in HBSS buffer was used. 100 μL of supernatant was diluted with 200 μL of water and submitted for LC-MS/MS analysis.
(§7) Efflux ratio=Papp of basal to apical samples/Papp of apical to basal samples
(§8) Recovery: {(dQ of Apical+dQ of Basal)/Standard dQ}*100

[1] = as above; type: in vitro ADME; settings: Caco-2, 2 μM, 120 minutes; for recovery at 120 min, 2 μM: human
Description: as §1, §2, §3, §4, §5, §6, §7, §8

[2] = system: rats with ELGE dry eye condition; assay: Corneal damage induced by ELGE in rats; type: in vivo, rat
[3] = system: IL-6 release in human PBMCs stimulated by poly(I:C), LPS or PMA/Ionomycin; assay: IL-6 ELISA in stimulated human PBMCs, 2nd pilot study (Example 8); type: cell-based; settings: for IL-6 (ELISA), individual wells / IL-6 (ELISA), Mean: 24 hr
Description: Human PBMCs frozen in a cryopreserve was thawed, washed with Hank's Balanced Salt Solution containing 10% Fetal bovine serum, and seeded onto a 24-well plate at a density of 1×10^6 cells/well with culture RPMI media containing 10% Fetal bovine serum in growth media in a 24 well plate for 12, 24, and 48 hrs and maintained at 37° C. in an atmosphere of 95% air and 5% CO2.
Human PBMCs was pretreated with a test compound; YDE-011 at 30 uM, 1 μM for 2 h before stimulation. An equal volume of 0.5% DMSO was used as a vehicle control. […] The supernatants from treated cells were harvested at 24 h and placed in 96 well for Human IL-6 ELISAS measurement according to the manufacturer's instructions (Invitrogen, CA, USA). […]
IL-6 measurement was performed by the sandwich ELISA method. The capture antibody was coated on a 96-well plate (Corning™ Costar™ 9018, NY, USA) at 100 ul/well and incubated overnight at 4° C. The interaction was blocked at room temperature for 2 h to prevent non-specific binding of the antigen-antibody. Then, the plate was incubated overnight at 4° C. with 1:200 diluted cell supernatants and standard dilute serial dilutions at 100 ul/well. Detection antibody was dispensed into the plate at 100 ul/well, and then allowed to incubate at a room temperature for 1 h. Finally, streptavidin-HRP (100 ul/well) was incubated at room temperature for 30 min. […] The sample reading was measured at 450 nm wavelength and 570 nm, and the quantification of the sample was converted as concentration (ng/ml) based on the standard curve extrapolation.

Classification (Caco-2 Permeability) (Caco-2 cells monolayer): LOW
recovery ([1]; read-out: A to B % Recovery): 34%
recovery ([1]; read-out: B to A % Recovery): 67.2%
SMILES: CC(C)C[C@H](NC(=O)[C@H](CCC(N)=O)NC(=O)CNC(=O)[C@@H]1C[C@@H](O)CN1)C(=O)NCC(=O)O [YDE-043] (H-[Hyp]GQLG-OH; N-terminus and C-terminus assumed)
corneal damage induced by ELGE (in words) [2]: effective in improving corneal damaged induced by ELGE

Classification (Caco-2 Permeability) (Caco-2 cells monolayer): LOW
recovery at 120 min, 2 μM ([1]; read-out: A to B % Recovery): 15%
recovery at 120 min, 2 μM ([1]; read-out: B to A % Recovery): 88.5%
SMILES: CC(C)C[C@H](NC(=O)CNC(=O)[C@H](CC(C)C)NC(=O)[C@H](CCC(N)=O)NC(=O)CNC(=O)[C@@H]1C[C@@H](O)CN1)C(=O)N[C@@H](C)C(=O)NCC(=O)N1CCC[C@H]1C(=O)N[C@@H](CCCCN)C(=O)O [YDE-011] (H-[Hyp]GQLGLAGPK-OH)
IL-6 induction in PBMCs (in words) ([3]; 1 uM, poly I:C, LPS or PMA/Ionomycin): effectively and significantly reduced IL-6 induction
IL-6 (ELISA), individual wells ([3]; PBMC + LPS(5 ug/ml) + YDE-011 1 uM): 14532.1 and 12561.2
IL-6 (ELISA), Mean ([3]; PBMC + LPS(5 ug/ml) + YDE-011 1 uM, LPS alone Mean 26093.3): 13546.7
IL-6 (ELISA), individual wells ([3]; PBMC + LPS(5 ug/ml) + YDE-011 30 uM): 23199.5 and 18310.8
IL-6 (ELISA), Mean ([3]; PBMC + LPS(5 ug/ml) + YDE-011 30 uM, LPS alone Mean 26093.3): 20755.2
IL-6 (ELISA), individual wells ([3]; PBMC + PMA(1 ng/ml)/Ionomycin(0.5 ug/ml) + YDE-011 1 uM): 2817.2 and 3828.2
IL-6 (ELISA), Mean ([3]; PBMC + PMA(1 ng/ml)/Ionomycin(0.5 ug/ml) + YDE-011 1 uM, stimulant alone Mean 4075.5): 3322.7
IL-6 (ELISA), individual wells ([3]; PBMC + PMA(1 ng/ml)/Ionomycin(0.5 ug/ml) + YDE-011 30 uM): 3114.6 and 3025
IL-6 (ELISA), Mean ([3]; PBMC + PMA(1 ng/ml)/Ionomycin(0.5 ug/ml) + YDE-011 30 uM, stimulant alone Mean 4075.5): 3069.8
IL-6 (ELISA), individual wells ([3]; PBMC + Poly I:C(25 ug/ml) + YDE-011 1 uM): 13701 and 12585.1
IL-6 (ELISA), Mean ([3]; PBMC + Poly I:C(25 ug/ml) + YDE-011 1 uM, Poly I:C alone Mean 21429.5): 13143.1
IL-6 (ELISA), individual wells ([3]; PBMC + Poly I:C(25 ug/ml) + YDE-011 30 uM): 39230.7 and 30634.7
IL-6 (ELISA), Mean ([3]; PBMC + Poly I:C(25 ug/ml) + YDE-011 30 uM, Poly I:C alone Mean 21429.5): 34932.7
IL-6 induction in PBMCs (in words) ([3]; higher concentration): diminished at a higher concentration
IL-6 levels induced by LPS or poly I:C (in words) ([3]; pilot studies): significantly reduced IL-6 levels induced by LPS or poly I:C
